{"source": "paper PMC4788259", "about": "(PLoS Neglected Tropical Diseases, 2016)", "key": {"[1]": {"test_system": "E. multilocularis germinal layer cells", "assay": "CellTiter-Glo viability assay on germinal layer cell cultures", "type": "cell-based", "details": "Echinococcus multilocularis, 120 h, 5 days, read-out: E.m. GL cells (IC50)", "procedure": "To assess the effects of MMV665807 on the viability of parasite cells, germinal layer cells were extracted according to Spiliotis et al. After overnight aggregate formation, 15 units of cells were distributed to a black 384 well plate (Nunc, Thermo Scientific, Reinach, Switzerland) in 12.5 μL medium. A concentration series (final concentrations of 3, 1, 0.3, 0.1, 0.03, 0.01 μM) of MMV665807, MMV665794 and mefloquine were prepared in medium and added 1:2 to the cells. For mefloquine, the concentration range was adjusted in a subsequent setup up to 100 μM. As negative control, DMSO was added accordingly. After 5 days of culture at 37°C under humid nitrogen atmosphere, 25 μL CellTiter-Glo (Promega, Dübendorf, Switzerland) including 1% TritonX-100 was added. Plates were incubated for 15 minutes on a shaker at room temperature and complete disruption of all cell aggregates was checked for before measurement of luminescence on a 2300 Enspire multilabel reader (Perkin-Elmer). Mean values and standard deviations were calculated and DMSO values set to 100% viability. The IC50 value was calculated in Microsoft Excel 2010 after logit-log transformation and averages as well as standard deviations of four independent setups were calculated."}, "[2]": {"test_system": "E. multilocularis metacestodes", "assay": "Transmission electron microscopy of treated metacestodes", "type": "cell-based, Echinococcus multilocularis", "details": "5 days", "procedure": "In vitro-cultured metacestodes were cultured for five days in the presence of 1.6, 0.8, 0.4 or 0.1 μM MMV665807, or in the absence of the drug, and were processed for TEM as previously described. In short, primary fixation was carried out in 2% glutaraldehyde in 0.1 M sodium-cacodylate buffer, pH 7.3 for 1 h, and post-fixation in 2% osmium tetroxide in 0.1 M sodium-cacodylate buffer for 2 h. Samples were then pre-stained in saturated uranyl acetate solution in water for 30 min, washed in water, and were stepwise dehydrated in ethanol (30%, 50%, 70%, 90%, and three times 100%). Subsequently specimens were embedded in epoxy resin and polymerization of the resin was carried out at 60°C for 12 h. Ultrathin sections were cut using an ultramicrotome (Reichert and Jung, Vienna, Austria), and were loaded onto formvar-carbon coated nickel grids (Plano GmbH, Marburg, Germany). Specimens were stained with uranyl acetate and lead citrate, and were viewed on a Phillips EM400 transmission electron microscope operating at 80 kV."}, "[3]": {"test_system": "E. multilocularis metacestodes", "assay": "Peroral treatment of secondary infected mice", "type": "in vivo, BALB/c mice", "details": "p.o. gavage 5 days per week, 4 weeks, MMV665807 100 mg/kg, ABZ 200 mg/kg", "procedure": "Animals were kept at a temperature-controlled 12/12 hours light cycle with food and water ad libitum and according to the Swiss Animal protection law. For the in vivo treatment of MMV665807, BALB/c mice (from Charles River, Sulzfeld, Germany), at the age of 8 weeks with an average body weight of 20 g, were i.p. infected with 200 μL metacestodes vesicle suspension. This material was prepared from in vitro-cultured metacestodes (strain H95), which were disintegrated by pressing the parasites through a 1 mL pipette tip. Parasite tissue was centrifuged at 500 x g for 5 min at room temperature before being mixed 1:1 in PBS.\nPeroral (p.o.) drug treatments by gavage were initiated 6 weeks post-infection and performed as follows: group 1 received no treatment at all; group 2 received 100 μL corn oil containing 7.8 μL DMSO; group 3 mice were treated with 100 μL corn oil containing albendazole (ABZ) in 7.8 μL DMSO, in order to obtain a dosage of 200 mg/kg body weight (positive control); group 4 was treated with 100 μL corn oil containing MMV665807 in 7.8 μL DMSO, resulting in 100 mg/kg body weight. All mice were treated for a total time period of 4 weeks, with consecutive treatment during 5 days per week, and interruption of treatment for 2 days each week. At the end of the treatment, all mice were sedated by isoflurane and subsequently euthanized by CO2. All parasite tissue was resected, placed into a petri dish, and the parasite mass was weighed. Statistical analysis of the in vivo experiments was performed in R version 3.0.1. The data distribution was checked by Shapiro-Wilk test and eventual differences between treatment groups identified by the non-parametric Kruskal-Wallis test. P values were calculated by the non-parametric Wilcoxon […] test with Bonferroni-adjustment. Boxplot visualizations of the data were prepared in Microsoft Excel 2010."}, "[4]": {"test_system": "E. multilocularis metacestode vesicles", "details": "12 days, alamarBlue vesicle viability assay"}, "[5]": {"test_system": "newly transformed schistosomula", "design": "method as in PMID 24416463", "details": "in vitro; read-out: IC50 against newly transformed schistosomula; cited from earlier work"}, "[6]": {"test_system": "adult worms", "design": "method as in PMID 24416463", "details": "in vitro; read-out: IC50 against adult worms; cited from earlier work"}, "[7]": {"design": "method as in earlier work", "details": "HMS, Mouse; ref MMV; cited from earlier work"}, "[8]": {"design": "method as in earlier work", "details": "PLS, ref MMV; cited from earlier work"}, "[9]": {"test_system": "hERG", "design": "method as in earlier work", "details": "ref MMV, cited from earlier work"}}, "data": [{"molecule": "O=C(Nc1cccc(C(F)(F)F)c1)c1cc(Cl)ccc1O", "note": "[MMV665807]", "values": [{"measurement": "IC50", "setting": "[1]", "value": "600 ± 370", "unit": "nM"}, {"measurement": "ultrastructural alterations (TEM)", "setting": "[2]; 0.1 μM and 0.4 μM", "value": "did not show any major alterations"}, {"measurement": "ultrastructural alterations (TEM)", "setting": "[2]; 0.8 μM", "value": "Clear alterations in the Echinococcus ultrastructure"}, {"measurement": "ultrastructural alterations (TEM)", "setting": "[2]; 1.6 μM", "value": "clear signs of cell death"}, {"measurement": "parasite weight compared to control", "setting": "[3]; start 6 weeks post-infection", "value": "no effect"}, {"measurement": "adverse effects during treatment", "setting": "[3]", "value": "No adverse effects"}, {"measurement": "lowest concentration that almost completely abolishes viability of the metacestode tissue", "setting": "[4]", "value": 1.6, "unit": "µM"}, {"measurement": "IC50", "setting": "[5]", "value": 1800, "unit": "nM"}, {"measurement": "IC50", "setting": "[6]", "value": "600 to 1300", "unit": "nM"}, {"measurement": "CLint", "setting": "[7]", "value": 302.9, "unit": "mL/min/kg"}, {"measurement": "t½", "setting": "[7]", "value": 27.2, "unit": "min"}, {"measurement": "% Remaining after Incubation (60 min) Human Plasma", "setting": "[8]", "value": 83.2, "unit": "%"}, {"measurement": "hERG % I (1uM)", "setting": "[9]; 1uM", "value": 18, "unit": "%"}, {"measurement": "hERG % I (11uM)", "setting": "[9]; 11uM", "value": 40, "unit": "%"}, {"measurement": "hERG activity level", "setting": "[9]", "value": "Weakly active"}]}]}
